Stress-induced hyperthermia, IC50 and melting point data for 21 compounds are collected here from patent US20080269250A1, “Pyrrolidine and Piperidine Acetylene Derivatives for Use as Mglur5 Antagonists” (priority 2005, published 2008).

The first data set concerns mice. As to the kind of experiment: stress-induced hyperthermia in mice. The following applies: 10 mg/kg p.o.; control 0.93±0.1° C.; p<0.01. It counts as in vivo. The procedure: A. Lecci et al., Psychopharmacol 101, 255-261]. At doses of about 0.1 to about 30 mg/kg p.o., selected agents of the invention reverse the stress-induced hyperthermia.
Turning to `O=C(c1cc2ccccc2o1)N1CCC(O)(C#Cc2cccc(Cl)c2)CC1` [Example 1.8, Benzofuran-2-yl-[4-(3-chloro-phenyl-ethynyl)-4-hydroxy-piperidin-1-yl]-methanone], the stress-induced hyperthermia was 0.44±0.08 °C.

The data set is the same for the next values; noted with them: 30 mg/kg p.o.; control 0.93±0.1° C.; p<0.05.
Turning to `O=C(c1cc2ccccc2o1)N1CCC(O)(C#Cc2cccc(Cl)c2)CC1` [Example 1.8, Benzofuran-2-yl-[4-(3-chloro-phenyl-ethynyl)-4-hydroxy-piperidin-1-yl]-methanone], the stress-induced hyperthermia turned out to be 0.46±0.14 °C.

The same data set, now with this note: 100 mg/kg p.o.; control 0.93±0.1° C.; p<0.001.
The compound `O=C(c1cc2ccccc2o1)N1CCC(O)(C#Cc2cccc(Cl)c2)CC1` [Example 1.8, Benzofuran-2-yl-[4-(3-chloro-phenyl-ethynyl)-4-hydroxy-piperidin-1-yl]-methanone] had a stress-induced hyperthermia of 0.24±0.12 °C.

The next data set deals with T1, hmGluR5 (Homo sapiens, UniProt P41594).
T1 construct: expressed in transfected cells
T1 sequence (P41594 21-1180 isoform P41594-2 limits assumed): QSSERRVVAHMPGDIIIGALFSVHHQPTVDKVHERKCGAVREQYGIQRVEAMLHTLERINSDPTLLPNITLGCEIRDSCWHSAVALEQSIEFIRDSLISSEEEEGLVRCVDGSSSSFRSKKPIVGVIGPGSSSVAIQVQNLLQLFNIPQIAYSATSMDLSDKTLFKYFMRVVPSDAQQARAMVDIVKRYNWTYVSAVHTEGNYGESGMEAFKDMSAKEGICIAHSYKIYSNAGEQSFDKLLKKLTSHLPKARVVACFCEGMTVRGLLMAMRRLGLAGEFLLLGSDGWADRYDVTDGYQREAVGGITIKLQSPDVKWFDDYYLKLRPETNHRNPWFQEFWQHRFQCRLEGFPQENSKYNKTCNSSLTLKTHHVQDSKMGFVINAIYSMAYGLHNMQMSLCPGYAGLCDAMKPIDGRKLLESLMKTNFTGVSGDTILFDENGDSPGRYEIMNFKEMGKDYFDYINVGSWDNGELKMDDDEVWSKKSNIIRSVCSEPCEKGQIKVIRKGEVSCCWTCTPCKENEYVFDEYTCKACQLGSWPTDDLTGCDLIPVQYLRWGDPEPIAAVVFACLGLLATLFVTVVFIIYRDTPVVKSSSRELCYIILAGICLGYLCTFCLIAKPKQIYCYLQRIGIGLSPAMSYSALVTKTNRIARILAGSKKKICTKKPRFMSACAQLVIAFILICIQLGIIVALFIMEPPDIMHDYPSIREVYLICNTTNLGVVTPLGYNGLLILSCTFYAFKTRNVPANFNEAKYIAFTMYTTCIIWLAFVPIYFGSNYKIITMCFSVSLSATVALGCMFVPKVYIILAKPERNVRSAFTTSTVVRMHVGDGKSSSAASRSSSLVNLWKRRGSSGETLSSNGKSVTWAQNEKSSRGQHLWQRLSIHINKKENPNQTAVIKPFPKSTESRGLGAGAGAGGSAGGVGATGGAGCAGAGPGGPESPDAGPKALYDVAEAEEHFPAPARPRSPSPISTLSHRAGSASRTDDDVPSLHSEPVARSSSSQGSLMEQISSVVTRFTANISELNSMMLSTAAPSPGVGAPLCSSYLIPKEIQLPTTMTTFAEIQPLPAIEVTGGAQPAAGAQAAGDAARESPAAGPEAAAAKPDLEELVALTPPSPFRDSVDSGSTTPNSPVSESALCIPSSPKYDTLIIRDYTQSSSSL
As to the kind of experiment: inhibition of quinqualate-induced inositol phosphate turnover in hmGluR5 expressing cells. It counts as cell-based. The settings on record: read-out: IC50 concentration, inhibition of quinqualate-induced inositol phosphate turnover. The text has this:
This can be determined in vitro for example at recombinant human metabotropic glutamate receptors, especially PLC-coupled subtypes thereof such as mGluRs, using different procedures like, for example, measurement of the inhibition of the agonist induced elevation of intracellular Ca^2+ concentration in accordance with L. P. Daggett et al., Neuropharm. Vol. 34, pages 871-886 (1995), P. J. Flor et al., J. Neurochem. Vol. 67, pages 58-63 (1996) or by determination to what extent the agonist induced elevation of the inositol phosphate turnover is inhibited as described by T. Knoepfel et al., Eur. J. Pharmacol. Vol. 288, pages 389-392 (1994), L. P. Daggett et al., Neuropharm. Vol. […] and references cited therein. Isolation and expression of human mGluR subtypes are described in U.S. Pat. No. 5,521,297. Selected agents of the invention show IC50 values for the inhibition of the agonist (e.g. glutamate or quisqualate) induced elevation of intracellular Ca2+ concentration or the agonist (e.g. glutamate or quisqualate) induced inositol phosphate turnover, measured in recombinant cells expressing hmGluR5a of about 1 nM to about 50 μM.
As to `O=C(c1cc2ccccc2o1)N1CCC(O)(C#Cc2cccc(Cl)c2)CC1` [Example 1.8, Benzofuran-2-yl-[4-(3-chloro-phenyl-ethynyl)-4-hydroxy-piperidin-1-yl]-methanone], the IC50 was 290 nM.

Test system in another data set: not given
Experiment: not given
Details: not given
`O=C(c1ccoc1)N1CCC(O)(C#Cc2cccc(Cl)c2)CC1` [Example 1, [4-(3-Chloro-phenylethynyl)-4-hydroxy-piperidin-1-yl]-furan-3-yl-methanone] came in with a melting point of 93 to 94 °C. In turn, `CN1CCC(C(=O)N2CCC(O)(C#Cc3cccc(Cl)c3)CC2)CC1` [Example 1.2, [4-(3-Chloro-phenylethynyl)-4-hydroxy-piperidin-1-yl]-(1-methyl-piperidin-4-yl)-methanone] came in with a melting point of 134 to 136 °C.

Compound `O=C(c1ccno1)N1CCC(O)(C#Cc2cccc(Cl)c2)CC1` [Example 1.3, [4-(3-Chloro-phenylethynyl)-4-hydroxy-piperidin-1-yl]-isoxazol-5-yl-methanone] registered a melting point of 132 to 135 °C. For `O=C(c1ncc[nH]1)N1CCC(O)(C#Cc2cccc(Cl)c2)CC1` [Example 1.4, [4-(3-Chloro-phenylethynyl)-4-hydroxy-piperidin-1-yl]-(1H-imidazol-2-yl)-methanone], the melting point fell in the range of 75 to 80 °C. The same measure, in the same setting: in the case of `O=C(c1ccoc1)N1CCC(O)(C#Cc2cccc(F)c2)CC1` [Example 1.31, [4-(3-Fluoro-phenylethynyl)-4-hydroxy-piperidin-1-yl]-furan-3-yl-methanone] it was 67 to 81 °C; in that of `O=C(c1ccoc1)N1CCC(O)(C#Cc2ccc(Cl)cc2)CC1` [Example 1.34, [4-(4-Chloro-phenylethynyl)-4-hydroxy-piperidin-1-yl]-furan-3-yl-methanone], 124 to 134 °C; in that of `O=C(c1ccoc1)N1CCC(O)(C#Cc2ccc(F)cc2F)CC1` [Example 1.35, [4-(2,4-Difluoro-phenylethynyl)-4-hydroxy-piperidin-1-yl]-furan-3-yl-methanone], 80 to 94 °C. Still for that read-out and setting: the same measure for `COc1cccc(C#CC2(O)CCN(C(=O)c3ccoc3)CC2)c1` [Example 1.36, Furan-3-yl-[4-hydroxy-4-(3-methoxy-phenylethynyl)-piperidin-1-yl]-methanone]: 83 to 85 °C; for `Cc1ccc(C)c(C#CC2(O)CCN(C(=O)c3ccoc3)CC2)c1` [Example 1.37, [4-(2,5-Dimethyl-phenylethynyl)-4-hydroxy-piperidin-1-yl]-furan-3-yl-methanone]: 110 to 114 °C; for `O=C(c1ccncc1)N1CCC(O)(C#Cc2cccc(Cl)c2)CC1` [Example 1.52, [4-(3-Chloro-phenylethynyl)-4-hydroxy-piperidin-1-yl]-pyridin-4-yl-methanone]: 171 to 173 °C.

Turning to `CC(C)c1ccc(N2CCC(O)(C#Cc3cccc(Cl)c3)CC2)cc1` [Example 1.128, 4-(3-Chloro-phenylethynyl)-1-(4-isopropyl-phenyl)-piperidin-4-ol], the melting point was 114 to 119 °C. On to `Cc1ccccc1N1CCC(O)(C#Cc2cccc(Cl)c2)CC1` [Example 1.137, 4-(3-Chloro-phenylethynyl)-1-o-tolyl-piperidin-4-ol], for which the melting point was 128 to 130 °C. The same measure, in the same setting: the same measure for `OC1(C#Cc2cccc(Cl)c2)CCN(c2cccnc2)CC1` [Example 1.138, 4-(3-Chloro-phenylethynyl)-3,4,5,6-tetrahydro-2H-[1,3]bipyridinyl-4-ol]: 124 to 128 °C; for `OC1(C#Cc2cccc(Cl)c2)CCN(c2cccc3nccnc23)CC1` [Example 1.139, 4-(3-Chloro-phenylethynyl)-1-quinoxalin-5-yl-piperidin-4-ol]: 68 to 70 °C. The same measure, in the same setting: the same measure for `OC1(C#Cc2cccc(Cl)c2)CCN(c2nc3ccccc3s2)CC1` [Example 1.144, 1-Benzothiazol-2-yl-4-(3-chloro-phenylethynyl)-piperidin-4-ol]: 154 to 157 °C.

Compound `Cc1cccnc1N1CCC(O)(C#Cc2cccc(Cl)c2)CC1` [Example 1.148, 4-(3-Chloro-phenylethynyl)-3′-methyl-3,4,5,6-tetrahydro-2H-[1,2′]bipyridinyl-4-ol] displayed a melting point of 134 to 138 °C.

`OC1(C#Cc2cccc(Cl)c2)CCN(c2ccnc(Cl)c2)CC1` [Example 1.151, 2′-Chloro-4-(3-chloro-phenylethynyl)-3,4,5,6-tetrahydro-2H-[1,4′]bipyridinyl-4-ol]: the melting point was 139 to 142 °C.

Consider `OC1(C#Cc2cccc(Cl)c2)CCN(c2cncnc2)CC1` [Example 1.162, 4-(3-Chloro-phenylethynyl)-1-pyrimidin-5-yl-piperidin-4-ol], for which the melting point was in the range of 173 to 177 °C. Consider `Cc1ncccc1N1CCC(O)(C#Cc2cccc(Cl)c2)CC1` [Example 1.164, 4-(3-Chloro-phenylethynyl)-2′-methyl-3,4,5,6-tetrahydro-2H-[1,3′]-bipyridinyl-4-ol], for which the melting point lay within 98 to 102 °C. On to `O=C(C1Oc2ccccc2O1)N1CCC(O)(C#Cc2cccc(Cl)c2)C1` (stereo not drawn) [Example 3.11, Benzo[1,3]dioxol-2-yl-[3-(3-chloro-phenylethynyl)-3-hydroxy-pyrrolidin-1-yl]-methanone], for which the melting point fell in the range of 153 to 155 °C.
